Each structure is given as a SMILES string. Values after ≈ are worked out from the molar mass of the structure shown. Where two headings read alike, the source gives them in different places.

This is an account of results in paper PMC12121626, “Synthesis, characterization and biological activity of methotrexate-derived salts in lung cancer cells” (RSC Medicinal Chemistry, 2025).

One data set relates to A549. Description: Antiproliferative activity, Cell Titer 96 Aqueous One cell proliferation assay, A549. Type of data set: cell-based, human. To be noted: for IC50: A549, 48 h of incubation; for SI (A549): selectivity index, IC50 fibroblasts/IC50 A549. The procedure:
(§1) Primary dermal neonatal fibroblasts (PCS-201-010) and lung adenocarcinoma cell lines (A549 and H1975) were acquired from ATCC (Manassas, VA, USA). […] All experiments were conducted at 37 °C, 5% (v/v) CO2, and 99% humidity in the dark. For simplicity, the supplemented media will be referred from now on as DMEM. NSCLC cell lines used in this work represent two different cancer models with different driver mutations[27] (Table 1). […] Doxorubicin (1.5 μM) was used as a positive control and 0.1% (v/v) DMSO was used as a vector control in all biological replicates. After 48 h of incubation, cell viability was measured using the Cell Titer 96® Aqueous One solution cell proliferation assay (Promega, Madison, WI, USA) according to the manufacturer's instructions and procedures described previously.[26,28] The absorbance of the formazan produced was quantified with a Tecan microplate reader (Infinite M200 (Tecan, Mannedorf, Switzerland)) and analysis of the dose–response curves to determine the relative IC50 was performed with GraphPad Prism 8 software (GraphPad Software, La Jolla, CA, USA). The selectivity index (IC50 fibroblasts/IC50 lung cancer cell line) was used as a measurement of the specificity of MTX salts for lung cancer cells.

The subject of a further data set is H1975. Description: Antiproliferative activity, Cell Titer 96 Aqueous One cell proliferation assay, H1975. To be noted: for IC50: H1975, 48 h of incubation; for SI (H1975): selectivity index, IC50 fibroblasts/IC50 H1975. Type of data set: cell-based, human. How it is done:
as §1

The subject of a further data set is A549 cells. The data set is described as follows: Evaluation of apoptosis, annexin V/PI double staining, flow cytometry. Type of data set: cell-based, human. To be noted: A549, 48 h of exposure to IC50 (DOX 1.5 μM). The procedure:
A549 cells were seeded on 6-well plates at a density of 2 × 10^5 cells per well and incubated for 48 h with the IC50 of salts ([C12mim]2[MTX], [C10mim]2[MTX], and [C10-3-picoline]2[MTX]) previously determined. Doxorubicin (1.5 μM) was used as a positive control and 0.1% (v/v) DMSO as a vector control. Cells were then detached from the wells and double stained using dead cell apoptosis annexin V (Thermo Fisher Scientific) according to the manufacturer's instructions. The percentage of live cells (unstained), cells in initial apoptosis (stained with annexin V-Alexa Fluor 488), cells in late apoptosis (double stained with annexin V-Alexa Fluor 488 and propidium iodide), or cells in necrosis (stained with propidium iodide) were quantified using an Attune acoustic focusing flow cytometer and the respective software (Thermo Fisher Scientific).
Cellular apoptosis is a process that leads to cell death. Using annexin V and propidium iodide (PI), cells could be divided into live cells, early apoptotic cells, late apoptotic cells, or necrotic cells, based on the differences in plasma membrane of these different stages. PI only enters cells with a permeabilized and/or compromised membrane (late apoptotic and necrotic cells, respectively), while annexin V-FITC binds to phosphatidylserine that translocates from the inner side of the plasma membrane to the outer side, staining cells in initial/late apoptosis.[31]
On the technique in general: Flow cytometry measures light scatter and fluorescence of single cells or particles in a stream.

Data set [1] in a line: Solubility in water, visually determined. How it is done:
To study the solubility and stability of the MTX salts, two different assays were performed. To measure the solubility, 1 μL of water was added dropwise to 1 mg of MTX salt and the solubility was visually determined.

Data set [2] deals with normal primary human dermal fibroblast. The data set is described as follows: Cytotoxic effect in normal cells, Cell Titer 96 Aqueous One cell proliferation assay, fibroblasts. Type of data set: cell-based. The settings on record: 48 h of incubation. The procedure:
as §1

The nature of data set [3]: UV-vis spectroscopy stability assay in DMEM biological medium. Type of data set: physicochemical. To be noted: 48 h period of the biological assays.
Details of data set [4]: method as in doi:10.1016/j.trac.2017.09.009. To be noted: cited from earlier work.
On the set-up of data set [5]: method as in PMID 23292116. To be noted: low solubility and low permeability; cited from earlier work.

With `C[N+](C)(C)CCO.[Cl-]` [[Choline][Cl], reference compound], the IC50 in the data set on A549 was above 50 µM.

Compound `CCCCCCCCCC[N+](C)(C)CCO.CCCCCCCCCC[N+](C)(C)CCO.CN(Cc1cnc2nc(N)nc(N)c2n1)c1ccc(C(=O)N[C@@H](CCC(=O)[O-])C(=O)[O-])cc1` [[N10,1,1,2OH]2[MTX]] registered an IC50 in the data set on A549 of 19.2 ± 1.28 µM.

As for `CCCCCCCCCCCCn1cc[n+](C)c1.CCCCCCCCCCCCn1cc[n+](C)c1.CN(Cc1cnc2nc(N)nc(N)c2n1)c1ccc(C(=O)N[C@@H](CCC(=O)[O-])C(=O)[O-])cc1` [[C12mim]2[MTX]], in the data set on A549, inhibition was half-maximal at 0.55 ± 0.25 µM (IC50) and the “SI (A549)” value turned out to be 2.9. Moreover, in the data set with H1975, the IC50 came to 2.72 ± 0.43 µM and the “SI (H1975)” value is listed as 0.6. In the data set on A549 cells, this compound displayed an Early apoptosis of 16.7 ± 7.3%, a Late apoptosis of 10.2 ± 8.3%, a Live cells of 72.9 ± 4.1% and a Necrosis of 0.1 ± 0.2%. In data set [1] (in water at room temperature), the “Solubility” value turned out to be 238.1 mg/mL.

As to `CCCCCCCCCCCCn1cc[n+](C)c1.[Br-]` [[C12mim][Br], reference compound], the figures for the IC50 (in the data set on A549; with H1975; in data set [2]) were 0.6 ± 0.21 µM, 10.2 ± 1.01 µM and 8.3 ± 0.92 µM, respectively. Further, the “SI (A549)” value in the data set with A549 is on record as 13.83. The “SI (H1975)” value in the data set with H1975 is reported as 0.8.

`CN(Cc1cnc2nc(N)nc(N)c2n1)c1ccc(C(=O)N[C@@H](CCC(=O)O)C(=O)O)cc1` [MTX, Methotrexate] had an IC50 with A549 (Homo sapiens) above 50 µM. Also, the Solubility in data set [1] was 0.01 mg/mL (≈ 22 µM). In addition, the “Stability in DMEM biological medium” value in data set [3] is “stability was retained”. Besides, in data set [4], the “pKa (first acidic proton, carboxylic acid)” value is 2.9 and the “pKa (second acidic proton, carboxylic acid)” value is 4.6. The “Class in the biopharmaceutical classification system” value in data set [5] was “class IV”.

`COc1cccc2c1C(=O)c1c(O)c3c(c(O)c1C2=O)C[C@@](O)(C(=O)CO)C[C@@H]3O[C@H]1C[C@H](N)[C@H](O)[C@H](C)O1` [DOX, Doxorubicin, reference compound]: in the data set on A549 cells, the Early apoptosis was 9.3 ± 7.1%, the Late apoptosis was determined as 65.25 ± 30.4%, the Live cells was 1.7 ± 1.8% and the Necrosis was found to be 23.7 ± 26.0%.

Consider `CCCCCCCCCCn1cc[n+](C)c1.CCCCCCCCCCn1cc[n+](C)c1.CN(Cc1cnc2nc(N)nc(N)c2n1)c1ccc(C(=O)N[C@@H](CCC(=O)[O-])C(=O)[O-])cc1` [[C10mim]2[MTX]], for which, in the data set with A549, the IC50 came to 1.71 ± 0.23 µM and the “SI (A549)” value is reported as 4.5. Further, in the data set with H1975, the IC50 came to 14.9 ± 1.17 µM and the “SI (H1975)” value is 0.5. For the same compound, it took 7.61 ± 0.88 µM to reach half-maximal inhibition in data set [2] (IC50). In the data set with A549 cells, this compound yielded an Early apoptosis of 14.9 ± 5.0%, a Late apoptosis of 10.7 ± 8.1%, a Live cells of 73.2 ± 5.0% and a Necrosis of 1.1 ± 1.8%. Besides, the “Solubility” value in data set [1] (in water at room temperature) is 312.5 mg/mL.

The compound `CCCCCCCCn1cc[n+](C)c1.CCCCCCCCn1cc[n+](C)c1.CN(Cc1cnc2nc(N)nc(N)c2n1)c1ccc(C(=O)NC(CCC(=O)[O-])C(=O)[O-])cc1` (stereo not drawn) [[C8mim]2[MTX]] came in with an IC50 with A549 above 50 µM.

In turn, `Cc1ccc[n+](CCO)c1` [[C2OH 3-picoline][Br], reference compound] yielded an IC50 in the data set with A549 above 50 µM.

For the compound `CCCCCCCCCC[n+]1cccc(C)c1.[Br-]` [[C10-3-picoline][Br], reference compound], the IC50 in the data set with A549 was 1.03 ± 0.01 µM; in the data set with H1975 it was 29.3 ± 1.47 µM; in data set [2], above 50 µM. Also, the “SI (A549)” value in the data set on A549 stood at 48.5.

Take `CCCCCCCCCCn1cc[n+](C)c1.[Br-]` [[C10mim][Br], reference compound]: the IC50 was 1.1 ± 0.02 µM in the data set on A549, 19.2 ± 1.28 µM in the data set on H1975 and above 50 µM in data set [2]. In addition, in the data set with A549, the “SI (A549)” value is reported as 45.5.

For the compound `CCCCCCCCCCCC[N+](C)(C)CCO.CCCCCCCCCCCC[N+](C)(C)CCO.CN(Cc1cnc2nc(N)nc(N)c2n1)c1ccc(C(=O)NC(CCC(=O)[O-])C(=O)[O-])cc1` (stereo not drawn) [[N12,1,1,2OH]2[MTX]], in the data set with A549, 8.55 ± 0.93 µM corresponded to half-maximal inhibition (IC50).

As to `CCCCCCCCCC[n+]1cccc(C)c1.CCCCCCCCCC[n+]1cccc(C)c1.CN(Cc1cnc2nc(N)nc(N)c2n1)c1ccc(C(=O)N[C@@H](CCC(=O)[O-])C(=O)[O-])cc1` [[C10-3-picoline]2[MTX]], in the data set on A549, the IC50 stood at 0.94 ± 0.03 µM and the “SI (A549)” value worked out at 11.3. The “IC50 in the cancer cell line relative to [Na]2[MTX]” value in the data set on A549 (A549, compared to [Na]2[MTX]) amounted to 4.06 fold. Moreover, in the data set on H1975, the midpoint of inhibition, the IC50, lay at 29.1 ± 1.46 µM and the “SI (H1975)” value was 0.4. The IC50 in data set [2] came to 10.6 ± 1.03 µM. In the data set with A549 cells, the Early apoptosis is reported as 14.9 ± 6.5%, the Late apoptosis amounted to 9.4 ± 5.6%, the Live cells stood at 75.3 ± 3.0% and the Necrosis is 0.02 ± 0.02%. Also, in data set [1] (in water at room temperature), the “Solubility” value turned out to be 138.9 mg/mL.

Turning to `CCCCCCn1cc[n+](C)c1.CCCCCCn1cc[n+](C)c1.CN(Cc1cnc2nc(N)nc(N)c2n1)c1ccc(C(=O)NC(CCC(=O)[O-])C(=O)[O-])cc1` (stereo not drawn) [[C6mim]2[MTX]], the concentration for half-maximal inhibition (IC50) with A549 is above 50 µM.

`CN(Cc1cnc2nc(N)nc(N)c2n1)c1ccc(C(=O)NC(CCC(=O)[O-])C(=O)[O-])cc1.C[n+]1ccn(CCO)c1.C[n+]1ccn(CCO)c1` (stereo not drawn) [[C2OHmim]2[MTX]] showed an IC50 in the data set with A549 above 50 µM. Further, the “Solubility” value in data set [1] (in water at room temperature) is 476.2 mg/mL.

`CN(Cc1cnc2nc(N)nc(N)c2n1)c1ccc(C(=O)N[C@@H](CCC(=O)[O-])C(=O)[O-])cc1.C[N+](C)(C)CCO.C[N+](C)(C)CCO` [[Choline]2[MTX]] yielded an IC50 in the data set with A549 above 50 µM. Moreover, in data set [1], the “Increase in solubility in water” value came out at 10 fold and the “Solubility” value came out at 1087.0 mg/mL.

In the case of `CN(Cc1cnc2nc(N)nc(N)c2n1)c1ccc(C(=O)NC(CCC(=O)[O-])C(=O)[O-])cc1.Cn1cc[n+](CCCCCCCCCCCCn2cc[n+](C)c2)c1` (stereo not drawn) [[MIMC12MIM][MTX]], inhibition in the data set with A549 was half-maximal at 12.4 ± 1.09 µM (IC50).

Compound `CCn1cc[n+](C)c1` [[C2MIM][Br], reference compound] gave an IC50 with A549 above 50 µM.

Regarding `CN(Cc1cnc2nc(N)nc(N)c2n1)c1ccc(C(=O)N[C@@H](CCC(=O)[O-])C(=O)[O-])cc1.[Na+].[Na+]` [[Na]2[MTX]] [reference compound], the IC50 in the data set with A549 was 3.82 ± 0.58 µM; in the data set on H1975, above 50 µM; in data set [2], above 50 µM. In data set [1] (in water at room temperature), the “Solubility” value was found to be 99.0 mg/mL.

With `CCn1cc[n+](C)c1.CCn1cc[n+](C)c1.CN(Cc1cnc2nc(N)nc(N)c2n1)c1ccc(C(=O)NC(CCC(=O)[O-])C(=O)[O-])cc1` (stereo not drawn) [[C2MIM]2[MTX]], in the data set with A549, the IC50 was above 50 µM. Further, the “Solubility” value in data set [1] (in water at room temperature) came out at 500.0 mg/mL.

The compound `C[n+]1ccn(CCO)c1` [[C2OHmim][Br], reference compound] showed an IC50 in the data set with A549 above 50 µM.

Consider `CN(Cc1cnc2nc(N)nc(N)c2n1)c1ccc(C(=O)N[C@@H](CCC(=O)[O-])C(=O)[O-])cc1.Cc1ccc[n+](CCO)c1.Cc1ccc[n+](CCO)c1` [[C2OH-3-picoline]2[MTX]], for which the IC50 with A549 was above 50 µM. Besides, the “Solubility” value in data set [1] (in water at room temperature) turned out to be 192.3 mg/mL.

One may read the IC50 as the concentration that gives 50% inhibition. A low value points to higher potency. What is called Solubility is the concentration that dissolves in the medium under given conditions.
